The text below walks through data of patent US4769321A, “Assay method and reagent therefor” (priority 1979, dated 1988).

One assay has as its system PK(I). The experiment in a line: Detection of ATP by activation of the PFK/PK(I) feedback system (Example B2). Particulars: 0.0001 to 0.5 mM ATP; 340 nm, 30° C. The assay is classed as biochemical, E. coli. As to the method:
Cultures of E. coli strain K1-1 were grown on a synthetic medium containing essential nutrients and glycerol as carbon source, until well into their logarithmic phase of growth. The cells were harvested, washed by centrifugation and resuspended in a sonication buffer of 5 mM phosphate, 1 mM EDTA, 2 mM mercaptoethanol pH 7.5 in an amount of approximately 20 mg dry weight per ml. They were then disrupted with an MSE ultrasonic disintegrator for 4 minutes (in 30 seconds bursts while cooled). The resulting crude extract was separated from cell debris by centrifugation. As well as containing pyruvate kinase (I) this extract also contained an interfering isoenzyme with different properties, and also a number of other interfering enzyme activities. It was found, however, that it was possible to remove these contaminants by heating the extract to 55° C. for 20-60, for example 45, minutes. This is the source of pyruvate kinase (I) referred to in the following examples.
In this example the same basic system described in Example 1 was again used, but instead of the system being used to detect an enzyme capable of giving rise to ATP, the pre-existing ATP in a solution was assayed, using a PK(I) extract which had been prepared by heating at 55° C. for 60 minutes.
As in the previous example, the assays were carried out in quartz spectrophotometer cuvettes for use with 1.0 ml assay mixtures. […]

For a further assay, the system named is creatine kinase. The experiment in a line: Creatine phosphate detection with creatine kinase as reagent (Example B7). The note with it: for O.D. Units (340 nm) change/minute at 1.5 minutes: CK 0.05 U, 30° C., nil CP gave 0.0011. The assay is classed as biochemical, bovine. On the procedure:
Mixtures were made up in 10 mM dimethyl-glutamate buffer at pH 6.8 and containing 5 mM MgCl2 and 0.1% in bovine serum albumin as follows:
In each case the components were combined from stock solutions in a quartz cuvette of 1 ml capacity, mixed and immediately monitored for NADH oxidation by following their optical density at 340 nm and 30° C.

Assay [1] relates to E. coli Type I pyruvate kinase (PK). Particulars: in the presence of certain amounts of phosphoenolpyruvate; cited from earlier work.
In the next assay the test system is alkaline phosphatase. Put plainly: Detection of alkaline phosphatase by antibody-coated wells and NAD cycle (Example A1). The assay is classed as biochemical, bovine (calf). The note with it: ten-fold dilutions 1:1000 to 1:10^7; pH 9.3; room temperature. On the procedure: The alkaline phosphatase used in this example is as obtainable from the Sigma Chemical Co (London) Ltd Type VII from bovine (calf) intestine catalogue number P4502 (1981). Antibody is raised against this material by any of the standard procedures. For example 0.5 mg of the alkaline phosphatase suspension is taken and made to 1.0 ml with distilled water and shaken gently. One ml of Freund's complete adjuvant is then added and the mixture homogenised through a connector between two hypodermic syringes back and forth until a stable water-in-oil emulsion is produced. Approximately 1 ml of the emulsion is then injected intramuscularly into each hindquarter of a rabbit. The injections are repeated two and four weeks later with the same amount of alkaline phosphatase but without the added Freund's adjuvant. Blood is then taken from the immunised animal two weeks after the last injection and the immune-serum taken off after clotting has taken place. An IgG fraction of the serum is then obtained by the standard procedure of DEAE Cellulose Chromatography set out in Methods in Immunology by D. H. Cambell, J. S. Garvey, N. E. Cremer and D. H. Sussdorf, 2nd Edition (1970) pages 193-197, published by W. A. Benjamin, Reading Mass. […] The plates are now ready for use. […]

As for `Nc1ncnc2c1ncn2[C@@H]1O[C@H](COP(=O)(O)OP(=O)(O)OP(=O)(O)O)[C@@H](O)[C@H]1O` [ATP, adenosine 5'-triphosphate], the “initiation and rate of NADH oxidation vs ATP concentration” value in the assay on PK(I) was “The higher concentrations of ATP gave rise to an earlier initiation of observable NADH oxidation and subsequently increased in their rate faster than the lower concentrations”.
Regarding `CN(CC(=O)O)C(=N)NP(=O)(O)O` [CP, creatine phosphate], the “dependence of the system on creatine phosphate” value in the assay on creatine kinase was “dependent on the presence of creatine phosphate and the concentration thereof”. For the same molecule, the results for the “O.D. Units (340 nm) change/minute at 1.5 minutes” value in the assay on creatine kinase (CP concentration 0.4 mM) and with creatine kinase (CP concentration 4.0 mM) were 0.0070 O.D. Units (340 nm) change/min and 0.0118 O.D. Units (340 nm) change/min, respectively.
For `O=C(COP(=O)(O)O)[C@@H](O)[C@H](O)[C@H](O)COP(=O)(O)O` [fructose-1,6-diphosphate], the “activation of E. coli Type I pyruvate kinase” value in assay [1] is reported as “very potent activator”.

B1: alkaline phosphatase: Sigma Type VII from bovine (calf) intestine catalogue number P4502 (protein, UniProt P19111 20-506, looked up)
Intestinal-type alkaline …: LVPVEEEDPAFWNRQAAQALDVAKKLQPIQTAAKNVILFLGDGMGVPTVTATRILKGQMNGKLGPETPLAMDQFPYVALSKTYNVDRQVPDSAGTATAYLCGVKGNYRTIGVSAAARYNQCKTTRGNEVTSVMNRAKKAGKSVGVVTTTRVQHASPAGAYAHTVNRNWYSDADLPADAQMNGCQDIAAQLVNNMDIDVILGGGRKYMFPVGTPDPEYPDDASVNGVRKRKQNLVQAWQAKHQGAQYVWNRTALLQAADDSSVTHLMGLFEPADMKYNVQQDHTKDPTLQEMTEVALRVVSRNPRGFYLFVEGGRIDHGHHDDKAYMALTEAGMFDNAIAKANELTSELDTLILVTADHSHVFSFGGYTLRGTSIFGLAPSKALDSKSYTSILYGNGPGYALGGGSRPDVNDSTSEDPSYQQQAAVPQASETHGGEDVAVFARGPQAHLVHGVEEETFVAHIMAFAGCVEPYTDCNLPAPTTATSIPD
B1: the “colour change in wells vs alkaline phosphatase concentration” value with alkaline phosphatase is on record as “change of colour from pale yellow to black much faster than did those which had been exposed to a lower concentration”.
